According to PubChem BioAssay AID2060882 (Molecular Pharmacology Branch, DTP, NCI, 2025):
Values joined by “and” are separate entries in the source; they are usually repeats but may differ in a detail not shown here. Equal values may be shown once.

Test system: 898857-211-R-J1-PDC complex spheroids, growth % test/control
Test: Anticancer human tumor 898857-211-R-J1-PDC patient-derived melanoma cell line growth inhibition [RAS]
Settings: for viability, T/C: stronger effect = lower value
Excerpt: RAS pathway inhibitors in Combinations in Complex Spheroids
A high-throughput screen of multi-cell type tumor spheroids was designed to identify active combinations of RAS pathway inhibitors and targeted small molecules. Complex spheroids include a stromal component modeled by human endothelial cells (HUVEC) and fibroblasts modeled by human mesenchymal stem cells (MSCs). The concentration ranges selected for each drug and investigational agent were based upon clinically achievable concentrations if the clinical Cmax of the agent was known.
Compounds. The drugs and investigational agents: abemaciclib (NSC768073), cobimetinib (NSC768068), divarasib (GDC6063, NSC841802), docetaxel (NSC628503), GDC-1971 (RLY-1971, NSC841576), gemcitabine (NSC613327), inavolisib (NSC800729), ipatasertib (NSC767898), KB-0742 (NSC834161), MRTX-1133 (NSC836407), osimertinib (NSC779217), RMC-4630 (NSC839698), RMC-6236 (NSC851965), RMC-6291 (NSC852671), Ro-3306 (NSC812927), sapanisertib (NSC764658), SN-38 (NSC673596), staurosporine (NSC755774), SY5609 (NSC837396), and tovorafenib (DAY101, NSC766906), were obtained from the National Cancer Institute (NCI) Developmental Therapeutics Program Chemical Repository. The FDA-approved anticancer drug set is available from the NCI Developmental Therapeutics Program. […] The stock solutions were prepared in dimethyl sulfoxide (DMSO, Sigma-Aldrich, St. Louis, MO, cat. D2650) at 800-fold the tested concentration and stored at -70 degrees C prior to their use. All drugs and investigational agents were tested over a range starting from a high concentration at or near the clinical Cmax and decreasing in half-log increments. If the clinical Cmax for an agent had not been determined, the highest concentration tested was 10 microM.
Cell Culture. All cells were maintained in an incubator at 37 degrees C and 5% CO2 with 95% humidity. The PDC lines were cultured according to standard operating procedures established by the NCI PDMR. All PDCs were thawed and cultured in Matrigel-coated flasks prepared with a working solution of 1X Ham's F-12 nutrient mix, without supplementation (Invitrogen, Waltham, MA, cat. 11765054), 100 U/mL penicillin-streptomycin (Invitrogen, cat. 15140122), and 2.5% Matrigel (Corning Inc., Corning, NY, cat. 354248) for the first three passages. The 362531-283-R-J2-PDC and 782815-120-R-J1-PDC lines were cultured in 6C/Colon 1B media, which includes advanced DMEM/F-12 (Thermo Fisher Scientific, cat. 12634028), 10 mM HEPES (Thermo Fisher Scientific, cat. 15630080), 1X GlutaMAX supplement (Thermo Fisher Scientific, cat. 35050061), 0.1 mg/mL primocin (InvivoGen, San Diego, CA, cat. ant-pm-2), 10% defined fetal bovine serum, heat inactivated (HyClone Laboratories Inc., Logan, UT, cat. SH30070.03HI), 50% L-WRN conditioned media (ATCC, cat. CRL-3276), 1.25 mM N-Acetyl-L-cysteine (Sigma-Aldrich, cat. A9165), 10 mM nicotinamide (Sigma-Aldrich, cat. N0636), 1X B-27 supplement (Thermo Fisher Scientific, cat. 17504044), 1X N-2 supplement (Thermo Fisher Scientific, cat. 17502048), 50 ng/mL human EGF (Thermo Fisher Scientific, cat. PHG0311), and 10 microM Y-27632 dihydrochloride (Tocris Bioscience, cat. 1254). The K12877-001-R-J1-PDC line was cultured in 6I media, which includes all 6C/Colon 1B media plus 10 ng/mL human FGF-10 (PeproTech, cat. 100-26), 1 ng/mL human FGF-2 (PeproTech, cat. 100-18B), 1 µM prostaglandin E2 (Tocris Bioscience, cat. 2296), […] hydrocortisone (Sigma-Aldrich, cat. H4001), and […] bovine insulin (Sigma-Aldrich, cat. I6634). The K86415-001-R-J1-PDC line was cultured in 6D media, which includes all 6C/Colon 1B media components minus the L-WRN conditioned media. The 485176-168-R4-J1-PDC was cultured in PANC media, which includes all 6C/Colon 1B media plus 100 ng/mL human FGF-10 (PeproTech, cat. 100-26), 500 nM SB-431542 (Selleckchem, cat. S1067), and 10 nM gastrin (Tocris Bioscience, cat. 3006). […]
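Further: spheroids exposed to compound for seven days before readout.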
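Wherever viability, T/C is given: 100% = DMSO vehicle control wells.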

For `CC(=O)OC12COC1CC(O)C1(C)C(=O)C(O)C3=C(C)C(OC(=O)C(O)C(NC(=O)OC(C)(C)C)c4ccccc4)CC(O)(C(OC(=O)c4ccccc4)C21)C3(C)C` (stereo unspecified), the viability, T/C (compound 0.0316 µM) was 13% [middle of 4 runs], the viability, T/C (compound 0.1 µM) was 13% [middle of 4 runs] and the viability, T/C (compound 0.316 µM) was 13.3% [middle of 4 runs]. The viability, T/C (compound 1 µM) was 15.8% [middle of 4 runs], the viability, T/C (compound 3.16 µM) was 17.8% [middle of 4 runs] and the viability, T/C (compound 10 µM) was 20.8% [middle of 4 runs]. For the same compound, the IC50 (curve of compound) was under 31.6 nM.

With `CC(C)NCC(C(=O)N1CCN(c2ncnc3c2C(C)CC3O)CC1)c1ccc(Cl)cc1` (stereo unspecified) the viability, T/C (compound 0.1 µM) was 101% [middle of 4 runs], the viability, T/C (compound 0.316 µM) was 104% [middle of 4 runs] and the viability, T/C (compound 1 µM) was 93.2% [middle of 4 runs]. For the same compound, the viability, T/C (compound 3.16 µM) was 78.1% [middle of 4 runs], the viability, T/C (compound 10 µM) was 58.9% [middle of 4 runs] and the IC50 (curve of compound) was over 10000 nM.

`CC(Nc1ccc2c(c1)OCCn1cc(N3C(=O)OCC3C(F)F)nc1-2)C(N)=O` (stereo unspecified) was tested, and the viability, T/C (compound 0.0316 µM) was 101% [middle of 4 runs], the viability, T/C (compound 0.1 µM) was 90.6% [middle of 4 runs] and the viability, T/C (compound 0.316 µM) was 102% [middle of 4 runs]. The viability, T/C (compound 1 µM) was 91.9% [middle of 4 runs], the viability, T/C (compound 3.16 µM) was 95.3% [middle of 4 runs] and the viability, T/C (compound 10 µM) was 70.9% [middle of 4 runs]. It also gave an IC50 (curve of compound) of over 10000 nM.

In the case of `CC1(O)CCCC1n1c(=O)c(C(F)F)cc2cnc(NC3CCN(S(C)(=O)=O)CC3)nc21` (stereo unspecified), the viability, T/C (compound 0.0316 µM) is reported as 93.3% and 97.5% and 83.3%, the viability, T/C (compound 0.1 µM) is reported as 58.4% and 53.8% and 49.8% and the viability, T/C (compound 0.316 µM) is reported as 42.2% (2×) and 39.9%. For the same compound, the viability, T/C (compound 1 µM) was 45.2% and 35.5% and 38.7%, the viability, T/C (compound 3.16 µM) was 41% and 30.3% and 45.7% and the viability, T/C (compound 10 µM) was 21.5% and 15.1% and 17.7%. The IC50 (curve of compound) was 232 nM and 169 nM and 149 nM.

With `CCC(CC)c1cc(NC2CCC(N)C2)n2nccc2n1` (stereo unspecified) the viability, T/C (compound 0.0316 µM) was 113% [middle of 4 runs], the viability, T/C (compound 0.1 µM) was 99.5% [middle of 4 runs] and the viability, T/C (compound 0.316 µM) was 97.5% [middle of 4 runs]. For the same compound, the viability, T/C (compound 3.16 µM) was 1.39% [middle of 4 runs], the viability, T/C (compound 10 µM) was 0.28% [middle of 4 runs] and the IC50 (curve of compound) was 1.04 µM [middle of 4 runs].

`C[C@@H](NC(=O)c1ncnc(N)c1Cl)c1ncc(C(=O)Nc2cc(C(F)(F)F)c(Cl)cn2)s1` was tested, and the viability, T/C (compound 0.1 µM) was 122% [middle of 4 runs], the viability, T/C (compound 1 µM) was 81.2% [middle of 4 runs] and the viability, T/C (compound 10 µM) was 36.8% [middle of 4 runs].

`Cc1nc(N2CCC3(CC2)COC(C)C3N)c(CO)nc1Sc1ccnc(N)c1Cl` (stereo unspecified) was tested, and the viability, T/C (compound 0.0316 µM) was 100% [middle of 4 runs], the viability, T/C (compound 0.1 µM) was 89.5% [middle of 4 runs] and the viability, T/C (compound 0.316 µM) was 101% [middle of 4 runs]. The viability, T/C (compound 1 µM) was 95.5% [middle of 4 runs], the viability, T/C (compound 3.16 µM) was 99.2% [middle of 4 runs] and the viability, T/C (compound 10 µM) was 93.4% [middle of 4 runs]. The IC50 (curve of compound) was over 10000 nM.

In the case of `NC1c2ccccc2OC12CCN(c1cnc3c(N4CCCc5ncccc54)n[nH]c3n1)CC2` (stereo unspecified), the viability, T/C (compound 0.0316 µM) is reported as 98.9% [middle of 4 runs], the viability, T/C (compound 0.1 µM) is reported as 88.9% [middle of 4 runs] and the viability, T/C (compound 0.316 µM) is reported as 97.4% [middle of 4 runs]. For the same compound, the viability, T/C (compound 1 µM) was 87% [middle of 4 runs], the viability, T/C (compound 3.16 µM) was 94.4% [middle of 4 runs] and the IC50 (curve of compound) was > 10000 nM and 9390 nM.

For `C=CC(=O)Nc1cc(Nc2nccc(-c3cn(C)c4ccccc34)n2)c(OC)cc1N(C)CCN(C)C` + C#Cc1c(F)ccc2cc(O)cc(-c3ncc4c(N5CC6CCC(C5)N6)nc(OCC56CCCN5CC(F)C6)nc4c3F)c12, the IC50 (curve of first compound, second compound 0.0316 µM) was over 1000 nM, the IC50 (curve of first compound, second compound 0.1 µM) was over 1000 nM and the IC50 (curve of first compound, second compound 0.316 µM) was over 1000 nM. The IC50 (curve of first compound, second compound 1 µM) was over 1000 nM, the IC50 (curve of first compound, second compound 3.16 µM) was 778 nM and the IC50 (curve of first compound, second compound 10 µM) was 24 nM. It also gave a viability, T/C (second compound 0.0316 µM, first compound 0.00316 µM) of 103%, a viability, T/C (second compound 0.0316 µM, first compound 0.01 µM) of 92.3% and a viability, T/C (second compound 0.0316 µM, first compound 0.0316 µM) of 103%. For the same compound, the viability, T/C (second compound 0.0316 µM, first compound 0.1 µM) was 100%, the viability, T/C (second compound 0.0316 µM, first compound 0.316 µM) was 85.4% and the viability, T/C (second compound 0.0316 µM, first compound 1 µM) was 65.7%. For the same compound, the viability, T/C (second compound 0.1 µM, first compound 0.00316 µM) was 108%, the viability, T/C (second compound 0.1 µM, first compound 0.01 µM) was 105% and the viability, T/C (second compound 0.1 µM, first compound 0.0316 µM) was 107%. It also gave a viability, T/C (second compound 0.1 µM, first compound 0.1 µM) of 98.6%, a viability, T/C (second compound 0.1 µM, first compound 0.316 µM) of 94.7% and a viability, T/C (second compound 0.1 µM, first compound 1 µM) of 62.1%. For the same compound, the viability, T/C (second compound 0.316 µM, first compound 0.00316 µM) was 113%, the viability, T/C (second compound 0.316 µM, first compound 0.01 µM) was 101% and the viability, T/C (second compound 0.316 µM, first compound 0.0316 µM) was 111%. The viability, T/C (second compound 0.316 µM, first compound 0.1 µM) was 96.2%, the viability, T/C (second compound 0.316 µM, first compound 0.316 µM) was 85.8% and the viability, T/C (second compound 0.316 µM, first compound 1 µM) was 49.9%. It also gave a viability, T/C (second compound 1 µM, first compound 0.00316 µM) of 109%, a viability, T/C (second compound 1 µM, first compound 0.01 µM) of 95.8% and a viability, T/C (second compound 1 µM, first compound 0.0316 µM) of 109%. The viability, T/C (second compound 1 µM, first compound 0.1 µM) was 97.6%, the viability, T/C (second compound 1 µM, first compound 0.316 µM) was 93.6% and the viability, T/C (second compound 1 µM, first compound 1 µM) was 54.5%. It also gave a viability, T/C (second compound 3.16 µM, first compound 0.00316 µM) of 109%, a viability, T/C (second compound 3.16 µM, first compound 0.01 µM) of 105% and a viability, T/C (second compound 3.16 µM, first compound 0.0316 µM) of 102%. For the same compound, the viability, T/C (second compound 3.16 µM, first compound 0.1 µM) was 105%, the viability, T/C (second compound 3.16 µM, first compound 0.316 µM) was 87.6% and the viability, T/C (second compound 3.16 µM, first compound 1 µM) was 39%. The viability, T/C (second compound 10 µM, first compound 0.00316 µM) was 65.7%, the viability, T/C (second compound 10 µM, first compound 0.01 µM) was 48.1% and the viability, T/C (second compound 10 µM, first compound 0.0316 µM) was 45.1%. The viability, T/C (second compound 10 µM, first compound 0.1 µM) was 45.5%, the viability, T/C (second compound 10 µM, first compound 0.316 µM) was 19.9% and the viability, T/C (second compound 10 µM, first compound 1 µM) was 0.87%.
